# System: HCC1937
# Assay: normalised response (% of control), CellTiter-Glo; higher = more viable cells (100 = DMSO, 0 = benzethonium chloride kill control)
# Conditions: incubation time: 72 h
# Protocol: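 DSRT, 72 h incubation, CellTox Green / CellTiter-Glo readout. Signal is normalised to DMSO and benzethonium chloride controls. Value is the normalised response at dose 3.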
row,Compound,normalised response [%]
1,CNC(=O)c1cc(Oc2ccc(NC(=O)Nc3cc(C(C)(C)C)nn3-c3ccc4ncccc4c3)c(F)c2)ccn1 [Rebastinib] (10 nM),102
2,COc1cc2c(Oc3ccc4[nH]c(C)cc4c3F)ncnc2cc1OCCCN1CCCC1 [Cediranib] (10 nM),99.5
3,C=CC(=O)N1CCC[C@@H](n2nc(-c3ccc(Oc4ccccc4)cc3)c3c(N)ncnc32)C1 [Ibrutinib] (10 nM),94.2
4,O=C(Cc1ccc(-c2ccc(OCCN3CCOCC3)cc2)cn1)NCc1ccccc1 [KX2-391] (100 nM),73.2
5,O=C(/C=C/c1cccnc1)NCCCCC1CCN(C(=O)c2ccccc2)CC1 [Daporinad] (10 nM),42.5
6,Nc1ncn([C@H]2C[C@H](O)[C@@H](CO)O2)c(=O)n1 [Decitabine] (100 nM),93.2
7,CC[C@@H]1C(=O)N(C)c2cnc(Nc3ccc(C(=O)NC4CCN(C)CC4)cc3OC)nc2N1C1CCCC1 [BI 2536] (10 nM),84.8

# System: MDA-MB-468
# Assay: normalised response (% of control), CellTox Green; higher = less cell death (100 = DMSO, 0 = benzethonium chloride kill control)
# Conditions: incubation time: 72 h
# In short: (§1)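 In 384-well plates holding compound at 5 concentrations in 10-fold steps over a 10,000-fold range specific to each compound, breast cancer cell lines were seeded as 20 µl suspension and incubated 72 h. CellTox Green fluorescence was measured at 485/520 nm, after which CellTiter-Glo luminescence was measured following 10 min at room temperature. Plate signals were normalised to 0.1 % DMSO (100) and a positive kill control (0), and each value is the normalised signal at a single concentration.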
row,Compound,normalised response [%]
1,O=C(O)C1(C(=O)O)CCC1.[NH2-].[NH2-].[Pt+2] [Carboplatin] (100 nM),61.5
2,Nc1nc(F)nc2c1ncn2[C@@H]1O[C@H](CO)[C@@H](O)[C@@H]1O [Fludarabine] (100 nM),131
3,CNC(=O)c1cc(Oc2ccc(NC(=O)Nc3cc(C(C)(C)C)nn3-c3ccc4ncccc4c3)c(F)c2)ccn1 [Rebastinib] (10 nM),70.1
4,COc1cc2c(Oc3ccc4[nH]c(C)cc4c3F)ncnc2cc1OCCCN1CCCC1 [Cediranib] (10 nM),138
5,C=CC(=O)N1CCC[C@@H](n2nc(-c3ccc(Oc4ccccc4)cc3)c3c(N)ncnc32)C1 [Ibrutinib] (10 nM),92.8
6,O=C(Cc1ccc(-c2ccc(OCCN3CCOCC3)cc2)cn1)NCc1ccccc1 [KX2-391] (100 nM),-39.4
7,O=C(/C=C/c1cccnc1)NCCCCC1CCN(C(=O)c2ccccc2)CC1 [Daporinad] (10 nM),106
8,Nc1ncn([C@H]2C[C@H](O)[C@@H](CO)O2)c(=O)n1 [Decitabine] (100 nM),89.8
9,CC[C@@H]1C(=O)N(C)c2cnc(Nc3ccc(C(=O)NC4CCN(C)CC4)cc3OC)nc2N1C1CCCC1 [BI 2536] (10 nM),56.6

# System: MFM-223
# Assay: as above
# Conditions: incubation time: 72 h
# In short: as §1
row,Compound,normalised response [%]
1,O=C(O)C1(C(=O)O)CCC1.[NH2-].[NH2-].[Pt+2] [Carboplatin] (100 nM),96.8
2,Nc1nc(F)nc2c1ncn2[C@@H]1O[C@H](CO)[C@@H](O)[C@@H]1O [Fludarabine] (100 nM),104
3,CNC(=O)c1cc(Oc2ccc(NC(=O)Nc3cc(C(C)(C)C)nn3-c3ccc4ncccc4c3)c(F)c2)ccn1 [Rebastinib] (10 nM),103
4,COc1cc2c(Oc3ccc4[nH]c(C)cc4c3F)ncnc2cc1OCCCN1CCCC1 [Cediranib] (10 nM),106
5,C=CC(=O)N1CCC[C@@H](n2nc(-c3ccc(Oc4ccccc4)cc3)c3c(N)ncnc32)C1 [Ibrutinib] (10 nM),100
6,O=C(Cc1ccc(-c2ccc(OCCN3CCOCC3)cc2)cn1)NCc1ccccc1 [KX2-391] (100 nM),75.7
7,O=C(/C=C/c1cccnc1)NCCCCC1CCN(C(=O)c2ccccc2)CC1 [Daporinad] (10 nM),84.7
8,Nc1ncn([C@H]2C[C@H](O)[C@@H](CO)O2)c(=O)n1 [Decitabine] (100 nM),107
9,CC[C@@H]1C(=O)N(C)c2cnc(Nc3ccc(C(=O)NC4CCN(C)CC4)cc3OC)nc2N1C1CCCC1 [BI 2536] (10 nM),73

# System: HCC1599
# Assay: as above
# Conditions: incubation time: 72 h
# In short: as §1
row,Compound,normalised response [%]
1,O=C(O)C1(C(=O)O)CCC1.[NH2-].[NH2-].[Pt+2] [Carboplatin] (100 nM),100
2,Nc1nc(F)nc2c1ncn2[C@@H]1O[C@H](CO)[C@@H](O)[C@@H]1O [Fludarabine] (100 nM),108
3,CNC(=O)c1cc(Oc2ccc(NC(=O)Nc3cc(C(C)(C)C)nn3-c3ccc4ncccc4c3)c(F)c2)ccn1 [Rebastinib] (10 nM),98.2
4,COc1cc2c(Oc3ccc4[nH]c(C)cc4c3F)ncnc2cc1OCCCN1CCCC1 [Cediranib] (10 nM),113
5,C=CC(=O)N1CCC[C@@H](n2nc(-c3ccc(Oc4ccccc4)cc3)c3c(N)ncnc32)C1 [Ibrutinib] (10 nM),107
6,O=C(Cc1ccc(-c2ccc(OCCN3CCOCC3)cc2)cn1)NCc1ccccc1 [KX2-391] (100 nM),93.7
7,O=C(/C=C/c1cccnc1)NCCCCC1CCN(C(=O)c2ccccc2)CC1 [Daporinad] (10 nM),101
8,Nc1ncn([C@H]2C[C@H](O)[C@@H](CO)O2)c(=O)n1 [Decitabine] (100 nM),106
9,CC[C@@H]1C(=O)N(C)c2cnc(Nc3ccc(C(=O)NC4CCN(C)CC4)cc3OC)nc2N1C1CCCC1 [BI 2536] (10 nM),101

# System: DU-4475
# Assay: as above
# Conditions: incubation time: 72 h
# In short: as §1
row,Compound,normalised response [%]
1,O=C(O)C1(C(=O)O)CCC1.[NH2-].[NH2-].[Pt+2] [Carboplatin] (100 nM),105
2,Nc1nc(F)nc2c1ncn2[C@@H]1O[C@H](CO)[C@@H](O)[C@@H]1O [Fludarabine] (100 nM),105
3,CNC(=O)c1cc(Oc2ccc(NC(=O)Nc3cc(C(C)(C)C)nn3-c3ccc4ncccc4c3)c(F)c2)ccn1 [Rebastinib] (10 nM),101
4,COc1cc2c(Oc3ccc4[nH]c(C)cc4c3F)ncnc2cc1OCCCN1CCCC1 [Cediranib] (10 nM),97.7
5,C=CC(=O)N1CCC[C@@H](n2nc(-c3ccc(Oc4ccccc4)cc3)c3c(N)ncnc32)C1 [Ibrutinib] (10 nM),101
6,O=C(Cc1ccc(-c2ccc(OCCN3CCOCC3)cc2)cn1)NCc1ccccc1 [KX2-391] (100 nM),95.7
7,O=C(/C=C/c1cccnc1)NCCCCC1CCN(C(=O)c2ccccc2)CC1 [Daporinad] (10 nM),101
8,Nc1ncn([C@H]2C[C@H](O)[C@@H](CO)O2)c(=O)n1 [Decitabine] (100 nM),97.5
9,CC[C@@H]1C(=O)N(C)c2cnc(Nc3ccc(C(=O)NC4CCN(C)CC4)cc3OC)nc2N1C1CCCC1 [BI 2536] (10 nM),97.5

# System: CAL-85-1
# Assay: as above
# Conditions: incubation time: 72 h
# In short: as §1
row,Compound,normalised response [%]
1,O=C(O)C1(C(=O)O)CCC1.[NH2-].[NH2-].[Pt+2] [Carboplatin] (100 nM),108
2,Nc1nc(F)nc2c1ncn2[C@@H]1O[C@H](CO)[C@@H](O)[C@@H]1O [Fludarabine] (100 nM),101
3,CNC(=O)c1cc(Oc2ccc(NC(=O)Nc3cc(C(C)(C)C)nn3-c3ccc4ncccc4c3)c(F)c2)ccn1 [Rebastinib] (10 nM),113
4,COc1cc2c(Oc3ccc4[nH]c(C)cc4c3F)ncnc2cc1OCCCN1CCCC1 [Cediranib] (10 nM),90.9
5,C=CC(=O)N1CCC[C@@H](n2nc(-c3ccc(Oc4ccccc4)cc3)c3c(N)ncnc32)C1 [Ibrutinib] (10 nM),95.8
6,O=C(Cc1ccc(-c2ccc(OCCN3CCOCC3)cc2)cn1)NCc1ccccc1 [KX2-391] (100 nM),30.9
7,O=C(/C=C/c1cccnc1)NCCCCC1CCN(C(=O)c2ccccc2)CC1 [Daporinad] (10 nM),105
8,Nc1ncn([C@H]2C[C@H](O)[C@@H](CO)O2)c(=O)n1 [Decitabine] (100 nM),104
9,CC[C@@H]1C(=O)N(C)c2cnc(Nc3ccc(C(=O)NC4CCN(C)CC4)cc3OC)nc2N1C1CCCC1 [BI 2536] (10 nM),65.3

# System: BT-474
# Assay: as above
# Conditions: incubation time: 72 h
# In short: as §1
row,Compound,normalised response [%]
1,O=C(O)C1(C(=O)O)CCC1.[NH2-].[NH2-].[Pt+2] [Carboplatin] (100 nM),103
2,Nc1nc(F)nc2c1ncn2[C@@H]1O[C@H](CO)[C@@H](O)[C@@H]1O [Fludarabine] (100 nM),99.6
3,CNC(=O)c1cc(Oc2ccc(NC(=O)Nc3cc(C(C)(C)C)nn3-c3ccc4ncccc4c3)c(F)c2)ccn1 [Rebastinib] (10 nM),98.3
4,COc1cc2c(Oc3ccc4[nH]c(C)cc4c3F)ncnc2cc1OCCCN1CCCC1 [Cediranib] (10 nM),96.3
5,C=CC(=O)N1CCC[C@@H](n2nc(-c3ccc(Oc4ccccc4)cc3)c3c(N)ncnc32)C1 [Ibrutinib] (10 nM),96.3
6,O=C(Cc1ccc(-c2ccc(OCCN3CCOCC3)cc2)cn1)NCc1ccccc1 [KX2-391] (100 nM),85.1
7,O=C(/C=C/c1cccnc1)NCCCCC1CCN(C(=O)c2ccccc2)CC1 [Daporinad] (10 nM),95.6
8,Nc1ncn([C@H]2C[C@H](O)[C@@H](CO)O2)c(=O)n1 [Decitabine] (100 nM),94.3
9,CC[C@@H]1C(=O)N(C)c2cnc(Nc3ccc(C(=O)NC4CCN(C)CC4)cc3OC)nc2N1C1CCCC1 [BI 2536] (10 nM),78.1

# System: BT-549
# Assay: as above
# Conditions: incubation time: 72 h
# In short: as §1
row,Compound,normalised response [%]
1,O=C(O)C1(C(=O)O)CCC1.[NH2-].[NH2-].[Pt+2] [Carboplatin] (100 nM),78.9
2,CNC(=O)c1cc(Oc2ccc(NC(=O)Nc3cc(C(C)(C)C)nn3-c3ccc4ncccc4c3)c(F)c2)ccn1 [Rebastinib] (10 nM),107
3,COc1cc2c(Oc3ccc4[nH]c(C)cc4c3F)ncnc2cc1OCCCN1CCCC1 [Cediranib] (10 nM),104
4,C=CC(=O)N1CCC[C@@H](n2nc(-c3ccc(Oc4ccccc4)cc3)c3c(N)ncnc32)C1 [Ibrutinib] (10 nM),87
5,O=C(Cc1ccc(-c2ccc(OCCN3CCOCC3)cc2)cn1)NCc1ccccc1 [KX2-391] (100 nM),78.5
6,CC[C@@H]1C(=O)N(C)c2cnc(Nc3ccc(C(=O)NC4CCN(C)CC4)cc3OC)nc2N1C1CCCC1 [BI 2536] (10 nM),-328

# System: MDA-MB-231
# Assay: as above
# Conditions: incubation time: 72 h
# In short: as §1
row,Compound,normalised response [%]
1,O=C(O)C1(C(=O)O)CCC1.[NH2-].[NH2-].[Pt+2] [Carboplatin] (100 nM),101
2,Nc1nc(F)nc2c1ncn2[C@@H]1O[C@H](CO)[C@@H](O)[C@@H]1O [Fludarabine] (100 nM),116
3,CNC(=O)c1cc(Oc2ccc(NC(=O)Nc3cc(C(C)(C)C)nn3-c3ccc4ncccc4c3)c(F)c2)ccn1 [Rebastinib] (10 nM),105
4,COc1cc2c(Oc3ccc4[nH]c(C)cc4c3F)ncnc2cc1OCCCN1CCCC1 [Cediranib] (10 nM),106
5,C=CC(=O)N1CCC[C@@H](n2nc(-c3ccc(Oc4ccccc4)cc3)c3c(N)ncnc32)C1 [Ibrutinib] (10 nM),110
6,O=C(Cc1ccc(-c2ccc(OCCN3CCOCC3)cc2)cn1)NCc1ccccc1 [KX2-391] (100 nM),51.3
7,O=C(/C=C/c1cccnc1)NCCCCC1CCN(C(=O)c2ccccc2)CC1 [Daporinad] (10 nM),95.4
8,Nc1ncn([C@H]2C[C@H](O)[C@@H](CO)O2)c(=O)n1 [Decitabine] (100 nM),91.8
9,CC[C@@H]1C(=O)N(C)c2cnc(Nc3ccc(C(=O)NC4CCN(C)CC4)cc3OC)nc2N1C1CCCC1 [BI 2536] (10 nM),10.1

# System: HDQ-P1
# Assay: as above
# Conditions: incubation time: 72 h
# In short: as §1
row,Compound,normalised response [%]
1,O=C(O)C1(C(=O)O)CCC1.[NH2-].[NH2-].[Pt+2] [Carboplatin] (100 nM),88.8
2,Nc1nc(F)nc2c1ncn2[C@@H]1O[C@H](CO)[C@@H](O)[C@@H]1O [Fludarabine] (100 nM),101
3,CNC(=O)c1cc(Oc2ccc(NC(=O)Nc3cc(C(C)(C)C)nn3-c3ccc4ncccc4c3)c(F)c2)ccn1 [Rebastinib] (10 nM),57
4,COc1cc2c(Oc3ccc4[nH]c(C)cc4c3F)ncnc2cc1OCCCN1CCCC1 [Cediranib] (10 nM),108
5,C=CC(=O)N1CCC[C@@H](n2nc(-c3ccc(Oc4ccccc4)cc3)c3c(N)ncnc32)C1 [Ibrutinib] (10 nM),107
6,O=C(Cc1ccc(-c2ccc(OCCN3CCOCC3)cc2)cn1)NCc1ccccc1 [KX2-391] (100 nM),80.7
